The source of these data is paper PMC11855827, “High-Throughput Screening of Five Compound Libraries for Anthelmintic Activity and Toxicity Leads to the Discovery of Two Flavonoid Compounds” (International Journal of Molecular Sciences, 2025).

In general, EC50 refers to the concentration that produces a half-maximal response. In general, IC50 refers to the point on the concentration scale where inhibition reaches its midpoint.

Several values for one entry are separate records, joined by “and”; a condition that tells them apart may be missing. Equal values may be shown once. Read-outs that look alike come from different tables or passages of the source.

Data set [1] has as its system C. elegans. Description: C. elegans motility dose-response (DR) assay. The arrangement: species or system Caenorhabditis elegans.
For data set [2], the system named is H. contortus susceptible strain. Description: Egg hatch inhibition (EHI), ovicidal effect. The arrangement: species or system Haemonchus contortus. Conditions: Haemonchus contortus; for EC50: egg hatching, susceptible H. contortus, nine replicates, read-out: Ovicidal Effect EC50 (μM) H. c; for inhibition at 100 µM: susceptible strain, NE = Not Effective at 100 μM, control thiabendazole 0.1 µg/mL.

Data set [3] deals with T. circumcincta resistant strain. Description: Egg hatch inhibition (EHI), ovicidal effect. Conditions: Teladorsagia circumcincta; for EC50: egg hatching, resistant T. circumcincta, nine replicates, read-out: Ovicidal Effect EC50 (μM) T. c; for inhibition at 100 µM: resistant strain, NE = Not Effective at 100 μM, control thiabendazole 0.1 µg/mL. The arrangement: species or system Teladorsagia circumcincta.

Data set [4] relates to H. contortus susceptible strain. The data set is described as follows: Larval migration inhibition test (LMIT). The arrangement: species or system Haemonchus contortus. Conditions: L3, 100 μM, NE = Not Effective at 100 μM, control ivermectin 8.75 µg/mL; for inhibition at 100 µM: Haemonchus contortus, 24 h. An excerpt:
(§1) Eggs and third instar larvae (L3) of H. contortus from a field strain and a resistant strain of T. circumcincta were used in the current trials. These parasitic forms were obtained from fresh feces of Merino and Churra sheep experimentally infected at the experimental farm of the Instituto de Ganadería de Montaña (IGM, CSIC, Gruyeros, León, Spain) and purified according to previously described methods. Briefly, eggs were taken from fresh feces, washed, centrifuged and floated with a saturated sodium chloride solution, then concentrated, counted and used in the assays. L3 were obtained by culturing feces at 25 °C for 13 d. L3 larvae were […] in 0.5% sodium hypochlorite solution for 10 min at room temperature and washed to avoid excess salt. After washing, they were concentrated and counted for use.
(§2) The viability of H. contortus larvae was assessed by the larval migration inhibition test (LMIT) according to previously described methods. Briefly, 700 µL aliquots containing 500–600 L3 were prepared for each compound. […] After a 24 h incubation at 28 °C, the compound was removed by three washes, leaving a final volume of 1400 µL. After the washes, three 400 µL aliquots were taken from each tube and transferred to a 96-well plate with a MultiScreen mesh filter. The plates were incubated for a further 24 h at 28 °C to allow the motile L3 to pass through the 20 µm mesh for counting. Then, the number of larvae present in each well was counted to determine percentage of larval migration for each compound: % Larval migration=number of larvae migrating in compound wells/number of larvae migrating in negative control×100
(§3) For the larvae, ivermectin at 8.75 µg/mL and DMSO 0.5% (v/v) were used as controls and at least 12 replicates were performed. […] EC50 were determined by plotting the percentage of viability of the L1 against the concentration of each compound, using the nonlinear fit analysis provided by the SigmaPlot® 10.1.

Data set [5] relates to T. circumcincta resistant strain. Description: Larval migration inhibition test (LMIT). Conditions: Teladorsagia circumcincta, 24 h; resistant strain, L3, 100 μM; NE = Not Effective at 100 μM; control ivermectin 8.75 µg/mL; read-out: T. circumcincta LMIT (%). The arrangement: species or system Teladorsagia circumcincta.
Excerpt: as §1, §2, §3

Data set [6] is described as follows: Spheroids toxicity assay (alamarBlue). Conditions: human; for CC50 at 3 d: HepG2 liver spheroids (3D culture). It counts as cell-based. On the procedure: HepG2 cells were cultured as a monolayer under standard conditions, using DMEM/F12 medium supplemented with L-glutamine and 15 mM HEPES buffer (pH 7.2) supplemented with 10% fetal bovine serum (FBS) and antibiotic mixture (100 U/mL penicillin and 100 µg/mL streptomycin) at 37 °C and 5% CO2, according to previous published protocols.
Cells were detached from the culture flask using 0.25% trypsin solution and then centrifuged at 500× g for 6.5 min. After centrifugation, the supernatant was discarded, and the pellet was resuspended in culture medium. Cells were passed gently through a G27 needle several times and then counted. Cells were dispensed into a tissue treated Nunclon™ Sphera™ 96-well U-bottom plate (Thermo Scientific™, Waltham, MA, USA, 174925) in a final volume of 50 µL to a total of 2500 cells/well. In addition, another 50 µL of medium supplemented with Rat Tail Collagen I (Gibco™, Thermo Scientific™, Waltham, MA, USA, A1048301) was dispensed, to achieve a final concentration in a plate of 3 µg/mL for each well. The plate was centrifuged at 500× g for 1 min.
On Day 4, 100 µL of a serial dilution of the testing compounds were added to each well. For controls, 0.03% H2O2 (v/v) as positive control and 0.2% DMSO (v/v) as negative control were used.
To determine the viability of the spheroids to the testing compounds, a 20% of alamarBlue™ HS reagent (Invitrogen™, Thermo Fisher Scientific™, Waltham, MA, USA) was added on Day 7 and the results were read 24 h later using a Varioskan™ LUX (Thermo Scientific, USA, Instrument software ver. 1.00.37, Skanlt software ver. 5.0.0.42). All assays were conducted in duplicate across at least three independent experiments.
Background: Resazurin is reduced to fluorescent resorufin, in cell work by metabolically active cells.

Data set [7] concerns C. elegans. Conditions: 24 h, 110 µM.
For data set [8], the system named is C. elegans. Conditions: cited from earlier work.
The nature of another data set: in vitro. Conditions: C57BL/6, mouse.
Data set [9] concerns C. elegans. The data set is described as follows: microbe, parasite or virus in culture. Conditions: Caenorhabditis elegans.
The nature of data set [10]: Mouse intestinal organoids' tolerance assay (alamarBlue). Conditions: C57BL/6, mouse; for selectivity ratio at 3 d: mouse intestinal organoids (enteroids).
The subject of data set [11] is Staphylococcus epidermidis, Escherichia coli, and Candida albicans. The arrangement: method as in earlier work. Conditions: in vitro; cited from earlier work.
For data set [12] the following is noted: Globally Harmonized System (GHS) / ECHA; cited from earlier work.
For the next data set, the system named is H. contortus L3-L4. Conditions: read-out: IC50 against H. contortus L3-L4; cited from earlier work.
The conditions of data set [13]: human poisoning case; cited from earlier work.
The conditions of data set [14]: mice, estimated; cited from earlier work.
[15] abbreviates: read-out: Citotoxicity CC50 (μM) Sph.
[16] abbreviates: 0 h, read-out: Inhibition (%) 110 μM (0 h), C. elegans L4 motility, 110 μM, 0 h, mean ± SD of four experiments.
[17] abbreviates: 24 h, read-out: Inhibition (%) 110 μM (24 h), C. elegans L4 motility, 110 μM, 24 h, mean ± SD of four experiments.
Where [18] appears, read: Selective Index (SI) CC50/EC50 Ent/H. c, CC50 mouse enteroid / EC50 H. contortus.
[19] abbreviates: Selective Index (SI) CC50/EC50 Ent/T. c, CC50 mouse enteroid / EC50 T. circumcincta.

Turning to `O=C(/C=C/c1ccccc1)c1ccccc1` [Chalcone], the EC50 was 52.4 ± 1.4 µM in the data set with C. elegans [1] (read-out: EC50 (μM) at 24 h, C. elegans motility, DR assay); 3.7 ± 0.1 µM in data set [2]; 9.8 ± 0.3 µM in data set [3]; 52 ± 9 µM in the data set with C. elegans [8] (nematocidal, read-out: EC50 against C. elegans). In addition, the inhibition at 100 µM in [2] stood at 99.4 ± 0.1%; in [3], 100%; in data set [5], 4.7 ± 1.5%. Also, the “H. contortus LMIT (%)” value in [4] is given as 45.7 ± 4.5%. Moreover, the CC50 at 3 d in [6] (setting [15]) was over 90 µM; in data set [10], over 50 µM. The selectivity ratio in [6] (pH 7.2, Selective Index (SI) CC50/EC50 Sph/H. c) is over 24.3; in data set [6] (pH 7.2, Selective Index (SI) CC50/EC50 Sph/T. c) it was over 9.2; in “in vitro” (Selective Index (SI) CC50/EC50 Ent/H. c), over 13.5; in the data set “in vitro” (Selective Index (SI) CC50/EC50 Ent/T. c), over 5.1. Moreover, the “Percentage of motility inhibition 24 h” value with C. elegans [7] was determined as 86%. Also, the inhibition at 110 µM in the data set on C. elegans [9] (setting [16]) came to 30 ± 30%; in the data set with C. elegans [9] (setting [17]) it was 85 ± 15%.
As for `CCCCCCCCN=c1ccn(CCCCCCCCCCn2ccc(=NCCCCCCCC)cc2)cc1` [Octenidine, reference compound], the EC50 in the data set on C. elegans [1] (Caenorhabditis elegans, 24 h, read-out: EC50 (μM) at 24 h, C. elegans motility, DR assay, 24 h) amounted to 6.9 ± 0.5 µM; in data set [2], 2.1 ± 0.1 µM; in data set [3], 15.1 ± 4.8 µM. Also, the inhibition at 100 µM in data set [2] came to 99.5 ± 0.8%; in data set [3] it was 99.5 ± 0.9%; in [4], 98.3 ± 0.3%; in [5], 94.8 ± 4.3%. Also, the results for the CC50 at 3 d in data set [6] (setting [15]) and in data set [10] were 54.1 ± 2.8 µM and 14.2 ± 0.4 µM, respectively. The selectivity ratio at 3 d in [6] (HepG2 liver spheroids, pH 7.2, CC50 HepG2 spheroids / EC50 H. contortus, read-out: Selective Index (SI) CC50/EC50 Sph/H. c) is 25.8; in data set [6] (HepG2 liver spheroids, pH 7.2, CC50 HepG2 spheroids / EC50 T. circumcincta, read-out: Selective Index (SI) CC50/EC50 Sph/T. c), 3.6; in [10] (setting [18]) it was 6.8; in [10] (setting [19]), 0.9. Also, the “Concentration leading to a microbial reduction of more than 99% within 15 min” value in data set [11] was “below 1.5 μM”. Further, the GHS classification result in data set [12] is given as “category 4: acute toxicity”. In addition, the inhibition at 110 µM is 84 ± 1% in the data set on C. elegans [9] (setting [16]) and 96 ± 5% with C. elegans [9] (setting [17]).
`CCc1nn(C)c(C(=O)NCc2ccc(Oc3ccc(C)cc3)cc2)c1Cl` [Tolfenpyrad]: the EC50 was 2.4 ± 0.2 µM with C. elegans [1] (Caenorhabditis elegans, read-out: EC50 (μM) at 24 h, C. elegans motility, DR assay); 1.5 ± 0.1 µM in data set [2]; 0.2 ± 0.3 µM in data set [3]; 3.6 µM in the data set on C. elegans [8] (read-out: EC50 found in the literature). Also, the inhibition at 100 µM in [2] was determined as 96 ± 2.9%; in data set [3] it was 99.7 ± 0.5%; in data set [4], 9 ± 6.3%. The selectivity ratio in data set [6] (pH 7.2, CC50 HepG2 spheroids / EC50 H. contortus, read-out: Selective Index (SI) CC50/EC50 Sph/H. c) was over 33.3; in data set [6] (pH 7.2, CC50 HepG2 spheroids / EC50 T. circumcincta, read-out: Selective Index (SI) CC50/EC50 Sph/T. c), 250; in “in vitro” (setting [18]), under 0.7; in the data set “in vitro” (setting [19]) it was under 5. Besides, the CC50 in [6] (HepG2 liver spheroids, read-out: Citotoxicity CC50 (μM) Sph) is over 50 µM; in the data set “in vitro”, under 1 µM. In the data set on H. contortus L3-L4, the IC50 was 0.02 to 3 µM. In addition, in [13], the “Plasma concentration in a poisoning case” value is 1.97 µg/mL and 5.08 µM. Besides, the “Maximum tolerated dose (MTD)” value in [14] is recorded as 1 mg/kg. The GHS classification result in data set [12] is reported as “category 4: acute toxicity”. For the same compound, the inhibition at 110 µM came to 80 ± 2% with C. elegans [9] (0 h, read-out: Inhibition (%) 110 μM (0 h)) and 98 ± 2% in the data set on C. elegans [9] (24 h, read-out: Inhibition (%) 110 μM (24 h)).
